Results as given in patent US10508089B2, “Use of N-(1,3,4-Oxadiazol-2-yl)arylcarboxamides or their salts for controlling unwanted plants in areas of transgenic crop plants being tolerant to HPPD inhibitor herbicides” (BASF SE, priority 2014, dated 2019).
Read-outs that look alike come from different tables or passages of the source.

Experiments:
[1] = test system: T2 soybean events expressing PfHPPD-Evo40; assay type: in vivo; conditions: 14 days after treatment
[2] = test system: T3 cotton events expressing PfHPPD-Evo41; assay type: in vivo; conditions: 200 g Al/ha, post-emergence V3, scored after 14 days, field

Cc1nnc(NC(=O)c2ccc(C(F)(F)F)c(S(C)(=O)=O)c2C)o1 [Compound 2-145]
Number of plants categorized herbicide tolerance “0” (marginal; 41%-100% damaged leaf area) ([1]; 6.25 g Al/ha, total 8): 0
Number of plants categorized herbicide tolerance “1” (moderate; 26%-40% damaged leaf area) ([1]; 6.25 g Al/ha, total 8): 0
Number of plants categorized herbicide tolerance “2” (good; 16%-25% damaged leaf area) ([1]; 6.25 g Al/ha, total 8): 0
Number of plants categorized herbicide tolerance “3” (high; less than or equal to 15% damaged leaf area) ([1]; 6.25 g Al/ha, total 8): 8
Number of plants categorized herbicide tolerance “0” (marginal; 41%-100% damaged leaf area) ([1]; 25 g Al/ha, total 12): 0
Number of plants categorized herbicide tolerance “1” (moderate; 26%-40% damaged leaf area) ([1]; 25 g Al/ha, total 12): 0
Number of plants categorized herbicide tolerance “2” (good; 16%-25% damaged leaf area) ([1]; 25 g Al/ha, total 12): 0
Number of plants categorized herbicide tolerance “3” (high; less than or equal to 15% damaged leaf area) ([1]; 25 g Al/ha, total 12): 12
Number of plants categorized herbicide tolerance “0” (marginal; 41%-100% damaged leaf area) ([1]; 50 g Al/ha, total 4): 0
Number of plants categorized herbicide tolerance “1” (moderate; 26%-40% damaged leaf area) ([1]; 50 g Al/ha, total 4): 0
Number of plants categorized herbicide tolerance “2” (good; 16%-25% damaged leaf area) ([1]; 50 g Al/ha, total 4): 0
Number of plants categorized herbicide tolerance “3” (high; less than or equal to 15% damaged leaf area) ([1]; 50 g Al/ha, total 4): 4
Number of plants categorized herbicide tolerance “0” (marginal; 41%-100% damaged leaf area) ([1]; 75 g Al/ha, total 4): 0
Number of plants categorized herbicide tolerance “1” (moderate; 26%-40% damaged leaf area) ([1]; 75 g Al/ha, total 4): 0
Number of plants categorized herbicide tolerance “2” (good; 16%-25% damaged leaf area) ([1]; 75 g Al/ha, total 4): 0
Number of plants categorized herbicide tolerance “3” (high; less than or equal to 15% damaged leaf area) ([1]; 75 g Al/ha, total 4): 4
Average maximum phytotoxicity scoring ([2]; cotton event Evo41/1): 3 (“3” = high tolerance; 0%-10% damaged leaf area)
Average maximum phytotoxicity scoring ([2]; cotton event Evo41/2): 3 (“3” = high tolerance; 0%-10% damaged leaf area)
Average maximum phytotoxicity scoring ([2]; cotton event Evo41/3): 3 (“3” = high tolerance; 0%-10% damaged leaf area)
Average maximum phytotoxicity scoring ([2]; cotton event Evo41/4): 3 (“3” = high tolerance; 0%-10% damaged leaf area)
Average maximum phytotoxicity scoring ([2]; cotton event Evo41/5): 3 (“3” = high tolerance; 0%-10% damaged leaf area)
Average maximum phytotoxicity scoring ([2]; cotton event Evo41/6): 3 (“3” = high tolerance; 0%-10% damaged leaf area)
Average maximum phytotoxicity scoring ([2]; cotton event Evo41/7): 3 (“3” = high tolerance; 0%-10% damaged leaf area)
Average maximum phytotoxicity scoring ([2]; cotton event Evo41/8): 3 (“3” = high tolerance; 0%-10% damaged leaf area)
Average maximum phytotoxicity scoring ([2]; cotton event Evo41/9): 3 (“3” = high tolerance; 0%-10% damaged leaf area)
Average maximum phytotoxicity scoring ([2]; cotton event Evo41/10): 3 (“3” = high tolerance; 0%-10% damaged leaf area)
Average maximum phytotoxicity scoring ([2]; cotton event Evo41/11): 3 (“3” = high tolerance; 0%-10% damaged leaf area)
Average maximum phytotoxicity scoring ([2]; cotton event Evo41/12): 2 (“2” = good tolerance; 11%-15% damaged leaf area)
Average maximum phytotoxicity scoring ([2]; cotton event Evo41/13): 3 (“3” = high tolerance; 0%-10% damaged leaf area)
Average maximum phytotoxicity scoring ([2]; cotton event Evo41/14): 3 (“3” = high tolerance; 0%-10% damaged leaf area)
Average maximum phytotoxicity scoring ([2]; cotton event Evo41/15): 3 (“3” = high tolerance; 0%-10% damaged leaf area)
